Series [1] has as its system HCC1937. The series is described as follows: Cell cycle after drug washout, HCC1937. In kind it is cell-based, human. The conditions noted are these: 650 nM for 72 h, then 48 h of drug washout. The protocol: (§1) Cells were staining with propidium iodide then analyzed using a FACScan flow cytometer. […] After 72 h of treatment, control and treated cells were washed with PBS and re-incubated with compound (1-1) free medium (drug washout). As show in FIG. 14A-14C, significant differences in the percentage of compound (1-1)-treated cells in the G1, S and G2/M phases with respect to untreated controls were determined by a one-way ANOVA test (p<0.001) followed by an SNK a posteriori test. After washout, significant differences in the percentage of cells in a given cell cycle phase between control and pre-treated cells were determined with the Student t-test for independent samples with equal or different variance, as appropriate. * , × and # means significant difference between treated cells respect and controls in G1 phase (*p<0.05, **p<0.01), G2/M phase (×p<0.05, ××p<0.01) and S phase p<0.05, ## p<0.01), respectively. Each bar and vertical line represents the mean±SEM, respectively (n≥3).

In series [2] the test system is HCC1937. The series is described as follows: Western blotting and RT-PCR expression, HCC1937. Conditions: 650 nM; 24, 48 and 72 h. Type of series: cell-based, human. The source says:
(§2) Logarithmic transformation of the variable was applied before the ANOVA test if required. As shown in FIG. 16A-C, Western blots are representative of three independent experiments where each bar and vertical line represents the mean±SEM, respectively (n=3). As shown in FIG. 15D-15G, C-MYC protein and mRNA levels were unchanged by Compound (1-1) treatment in all the three cell lines.
(§3) CDKN1A (p21) mRNA levels were increased in all three cell models (p<0.001). […] Significant differences in the mRNA levels were determined by one-way ANOVA test (p<0.01) followed by SNK a posteriori test (*p<0.05, **p<0.01, […]). Logarithmic transformation of the variable was applied before the ANOVA test if required. Each bar and vertical line represents the mean±SEM, respectively (n=3). Western blots are representative of 3 independent experiments.

For series [3], the system named is HCC1937. The series is described as follows: MTT proliferation assay, HCC1937. The conditions noted are these: Homo sapiens. On the technique in general: Tetrazolium assays rely on reduction of a dye to a coloured formazan, in cell work by metabolically active cells.
A further series relates to MDA-MB-231. Kind of series: Cell cycle after drug washout, MDA-MB-231. In kind it is cell-based, human. Conditions: 75 nM for 72 h, then 48 h of drug washout. On the procedure: as §1
A further series concerns MDA-MB-468. The series is described as follows: Western blotting and RT-PCR expression, MDA-MB-468. The conditions noted are these: 24, 48 and 72 h. In kind it is cell-based, human.
Source text: as §2, §3
(In general: A western blot detects proteins with antibodies after separation by electrophoresis.)

A short description of another series: Oral exposure in the rat. In kind it is in vivo, Sprague Dawley rats. The conditions noted are these: 1 mg/kg intravenous. The protocol:
The oral bioavailability of three formulations of solid dispersions of compound (1-1) was determined in rats. The three dispersions chosen were the 25% dispersion of compound (1-1) in PVP, the 25% dispersion of compound (1-1) in HPMCAS-MG, and the 50% dispersion of compound (1-1) in HPMCAS-MG. The animals used in the study were Specific Pathogen Free (SPF) Hsd: Sprague Dawley rats obtained from the Central Animal Laboratory at the University of Turku, Finland. The rats were originally purchased from Harlan, The Netherlands. The rats were female and were ten weeks of age, and 12 rats were used in the study. […]
The oral dosing solutions containing the 25% dispersion of compound (1-1) in PVP, the 25% dispersion of compound (1-1) in HPMCAS-MG, and the 50% dispersion of compound (1-1) in HPMCAS-MG were prepared by adding a pre-calculated amount of sterile water for injection to containers holding the dispersion using appropriate quantities to obtain a concentration of 0.75 mg/mL of compound (1-1). […]
Pharmacokinetic parameters were calculated with the Phoenix WinNonlin software package (version 6.2.1, Pharsight Corp., CA, USA) with standard noncompartmental methods. The elimination phase half-life (t1/2) was calculated by least-squares regression analysis of the terminal linear part of the log concentration-time curve. […]

Where [4] appears, read: HCC1937, 48 h, 48 h exposure, hypoxia (0.1% O2).
Where [5] appears, read: HCC1937, 48 h, 48 h exposure, normoxia.
Where [6] appears, read: HCC1937, 72 h, 72 h exposure, hypoxia (0.1% O2).
The mark [7] stands for this setting: 650 nM, listed as compound (1-1), dihydrate.

“Also recorded” adds a separate entry of the source.

This is an account of results in patent US9968619B2, “Method of treating triple-negative breast cancer using thienotriazolodiazepine compounds” (ONCOETHIX GMBH, priority 2014, dated 2018).

With `Cc1sc2c(c1C)C(c1ccc(Cl)cc1)=N[C@@H](CC(=O)Nc1ccc(O)cc1)c1nnc(C)n1-2` [Compound (1-1), 2-[(6S)-4-(4-chlorophenyl)-2,3,9-trimethyl-6H-thienol[3,2-f]-[1,2,4]triazolo[4,3-a][1,4]diazepin-6-yl]-N-(4-hydroxyphenyl)acetamide dihydrate], the “cell cycle pattern after drug washout” value with HCC1937 [1] and in the series with MDA-MB-231 was “recovered the control cell cycle pattern” in each case. The “mRNA levels of BRD3” value in the series on HCC1937 [2] and in the series on MDA-MB-468 (650 nM) was “reduced” each time. Moreover, the Emax in the series on HCC1937 [3] (setting [4]) amounted to 60%; in the series on HCC1937 [3] (setting [5]) it was 41%; with HCC1937 [3] (setting [6]), 74%; in the series on HCC1937 [3] (HCC1937, 72 h, 72 h exposure, normoxia) it was 51%. The GI50 (in general, the concentration that inhibits growth by half) is 23.1 nM in the series on HCC1937 [3] (setting [4]); 110 nM with HCC1937 [3] (setting [5]); 29 nM in the series on HCC1937 [3] (setting [6]); 81.9 nM with HCC1937 [3] (HCC1937, 72 h, 72 h exposure, normoxia, * = apparent value). Besides, in the series on MDA-MB-468 (650 nM), the BRD2 levels entry is listed as “increased”. The “mRNA levels of BRD4” value with MDA-MB-468 (650 nM) is reported as “downregulated”. Further, the “c-Myc expression (mRNA and protein)” value in the series with MDA-MB-468 (650 nM, dihydrate) is “down-regulated”; with MDA-MB-468 (setting [7]) it was “downregulated; also recorded: downregulation”. Further, the “mRNA levels of n-Myc” value with MDA-MB-468 (setting [7]) is recorded as “downregulated; also recorded: downregulation”. Moreover, the “expression levels of c-MYC and n-MYC” value in the series on MDA-MB-468 (RT-PCR, 500 nM) was “marked (p<0.05) reduction”. The same compound yielded a CI/F in the series “Oral exposure in the rat” of 13.4 mL/min/kg.
